Reference: patent US10258633B2, “Treatment of fibrosis using FXR ligands” (Intercept Pharmaceuticals, Inc., priority 2004, dated 2019)

What was measured:
[1] = system: hepatic stellate cells (HSC); assay: Quantitative RT-PCR of FXR target genes (SHP, BSEP, NTCP, CYP7A1) in HSC
[2] = system: hepatic stellate cells (HSC); assay: Type I collagen α1 mRNA expression in HSCs by RT-PCR, quantitative RT-PCR and Northern blot; format: cell-based, rat; conditions: confirmed by Northern blot
Method: Primers: Rat SHP: [NT] (SEQ ID NO: 1) and [NT] (SEQ ID NO: 2); Rat FXR: [NT] (SEQ ID NO: 3) and [NT] […] (SEQ ID NO: 5) and [NT] (SEQ ID NO: 6); Rat c-Jun: [NT] (SEQ ID NO: 7) and 5' [NT] 3 (SEQ ID NO: 8)'; Rat JunD: [NT] (SEQ ID NO: 9) and [NT] […] (SEQ ID NO: 12). Levels of Collagen I alpha I were determined by Northern blot analyses of total RNA samples prepared from primary hepatic stellate cells (HSC), T6 and HepG2 cell lines. For this purpose, 10 μg total RNA was resolved by gel electrophoresis (1% agarose containing 0.98 M formaldehyde). Immediately after electrophoresis the RNA was transferred to a positively charged Nylon membrane (Amersham Life Sciences crop.). The transferred RNA was cross-linked to the membrane by UV light. The membrane was prehybridized for 4 hours in 6×SSC and 2% SDS and subsequently hybridized at 65° C. for 20 h with 32^P-labeled probes for collagen I alpha I or GAPDH (as internal control). Hybridized membranes were washed at a final stringency of 1×SSC, 1.0% SDS at 65° C. and exposed to Kodak AR-2 film at -80° C. The data are expressed relative to the internal GAPDH.

[3] = system: hepatic stellate cells (HSC); assay: HSC proliferation assay ([3H]-thymidine incorporation, cell counting); format: cell-based, rat
[4] = system: BDL rats; assay: Liver fibrosis in bile duct ligated (BDL) rats; format: in vivo, rat; conditions: 1 and 3 mg/kg/day by oral route
Method: BDL is a model of chronic cholestasis. In this model, however, progressive liver fibrosis leads to the development of cirrhosis 3-4 weeks after ligation and it is therefore also used as a model of liver fibrosis (Kountouras et al., Br. J. Exp. Pathol., 65: 305-311, 1984). Because this model allows us to test the effect of anti-fibrotic remedies, we administered rats […] with 6ECDCA at the dose of 1 and 3 mg/kg per os per day for 2 weeks. The protocol's study was approved by the Animal Study Committee of the University of Perugia. Hepatic fibrosis was induced in 8-9 weeks old male Wistar rats (Charles River, Monza, Italy) by BDL. BDL was performed as originally described by Kountouras et al. (Br. J. Exp. Pathol. 65: 305-311; 1984). One week after BDL, rats were randomized to receive one of the following treatments, placebo (subcutaneous injection of 100 μL PBS) or 6ECDCA at the doses 1 and 3 mg/kg/day by oral route. Animals were then followed for 3 weeks.
At the end of the study surviving rats were sacrificed under pentobarbital sodium anesthesia (50 mg/kg i.p) and terminally bled via cardiac puncture. The blood was centrifuged at 7250 g for 20 minutes at 4° C.; the resultant serum was stored at −20° C. until analysis (a maximum of 2 weeks). At the time of death, the bile duct ligature was confirmed to be intact with proximal dilatation of the common bile duct. After weight determination, specimens of livers were snap frozen in liquid nitrogen and stored at −70° C. for subsequent analysis. For histologic examination portions of the right and left liver lobes (10-15 mg/each) from each animal were fixed in 10% formalin, embedded in paraffin, sectioned, and stained with hematoxylin and eosin or Sirius red. For Sirius red staining, the sections were incubated for 30 minutes in 0.1% Sirius red F3B (Sigma Chemical Co.) containing saturated picric acid and 0.1% Fast Green. After rinsing twice with distilled water, sections were briefly dehydrated with 70% ethanol and coverslipped. Collagen surface density from liver samples was quantified using a computerized image analysis system as described previously (Image Acquisition System Ver. 005, Delta Sistemi, Rome, Italy). The surface density of collagen in blinded specimens was measured at a video screen display magnification according to the method described by Rockey and Chung (Rockey, D. C., Chung, J. J. J. Clin. Invest. 98: 1381-1388, 1996) and expressed as a percent (the ratio of collagen surface area per total analyzed field surface). The average of the score taken from 10 random fields was used to generate a single score for each animal's liver.

[5] = system: FXR; conditions: cell-free assay or cell-based transactivation assay using a human or rat FXR; cited from earlier work

SMILES: C[C@H](CCC(=O)O)[C@H]1CC[C@H]2[C@@H]3[C@H](O)C[C@@H]4C[C@H](O)CC[C@]4(C)[C@H]3CC[C@]12C [CDCA, chenodeoxycholic acid, reference compound]
- increase of BSEP mRNA ([1]; CDCA 20 μM): 2 fold
- increase of SHP mRNA ([1]; CDCA 20 μM): 2 fold
- expression of type I collagen (α1 mRNA) ([2]; 20 μM): reduces

SMILES: CC[C@H]1[C@@H](O)[C@@H]2[C@H](CC[C@]3(C)[C@@H]([C@H](C)CCC(=O)O)CC[C@@H]23)[C@@]2(C)CC[C@@H](O)C[C@@H]12 [6ECDCA]
- increase of BSEP mRNA ([1]; 6ECDCA 1 μM): 2 fold
- increase of SHP mRNA ([1]; 6ECDCA 1 μM): 2 fold
- expression of type I collagen (α1 mRNA) ([2]; 1 μM): reduces
- liver collagen deposition by scoring of Sirius-red staining [4]: significant reduction
- liver hydroxyproline content [4]: significant reduction
- liver α1 mRNA by RT-PCR [4]: significant reduction
- reduction in liver collagen content, quantitative analysis of Sirius Red stained collagen [4]: 62%

SMILES: CC(C)c1onc(-c2c(Cl)cccc2Cl)c1COc1ccc(/C=C/c2cccc(C(=O)O)c2)c(Cl)c1 [GW4064]
- expression of type I collagen (α1 mRNA) ([2]; 100 μM): reduces
